Like-named read-outs stand apart in the source and are kept apart here.
Experiment: Pharmacokinetic study: plasma, blood and quadriceps Givinostat levels after single oral dose (LC-MS/MS)
Assay type: in vivo, mdx mice (C57BL/10ScSn-Dmd^mdx/J)
Details: mdx mice; for Kp: quadriceps muscle and plasma
Protocol: For the PK study, C57BL/10ScSn-Dmd^mdx/J (Stock No: 001801) 9-week-old male mice were purchased from The Jackson Laboratories (Bar Harbor, Maine, USA). After 5 days of acclimatization in the animal facility, mdx mice were randomized into 4 treatment groups (28 mice/group; 4 mice/cage) and 1 untreated group (4 mice) based on their BW. Animals were administered with single oral dose of Givinostat at 5, 10, 25, and 37.5 mg/kg and samples were collected at the following time points: 0.5, 1, 1.5, 2, 3, 4, and 6 h after administration.
In the PK study, formulations were prepared suspending Givinostat in 0.5% methylcellulose at the concentrations of 0.5, 1, 2.5, and 3.75 mg/mL. The administered volume was 10 mL/kg to obtain 5, 10, 25, and 37.5 mg/kg dosages.
Mice were maintained under isoflurane anesthesia. Blood samples were collected in two aliquots from the retro-orbital plexus of mice and transferred into tubes containing heparin as anticoagulant (100 USPunits/mL) and then mice were sacrificed by cervical dislocation. One aliquot of 50 μL was diluted with the same volume of water and immediately frozen in dry ice. This blood was analyzed in order to subtract the blood content of Givinostat from the muscle homogenate. The other aliquot of blood was centrifuged for 10 min at 13,000 rpm at 4 °C and plasma was separated and frozen in dry ice. The quadriceps of the right hindlimb was removed, weighed, and then washed twice in 1 mL of PBS pH 7.4 and dried with paper, then it was frozen in dry ice.
Givinostat was determined in mouse plasma (50 μL) following a protein precipitation (200 μL of 1% HCOOH in acetonitrile) and Ostro (Waters) plate filtration. The organic phase was evaporated under a stream of nitrogen; the residue was re-dissolved in the reconstitution solvent (100 μL of 25% CH3CN-75% H2O-0.05% TFA), and 5 μL was analyzed. Givinostat concentrations were measured by LC-MS/MS method, in the calibration range of 0.5–400 ng/mL.
Givinostat was determined in diluted blood (100 μL, 1:2 in water) with a liquid-liquid extraction. Samples were mixed and extracted with 2 mL of diethyl ether and centrifuged, and the organic phase was separated and evaporated under a stream of nitrogen. The residue was re-dissolved in the reconstitution solvent (150 μL of 25% CH3CN-75% H2O-0.05% TFA), sonicated, and filtered (regenerated cellulose syringe filters), and 5 μL was analyzed by LC-MS/MS method. The calibration range of the method was 1–200 ng/mL.
Mouse quadriceps were homogenized in PBS pH = 7.4 (1:10 w/v) with ultrasonic homogenizer (Sonoplus Mini20 - Bandelin) maintaining the samples in an ice bath. Quadricep homogenate (100 μL) was added with 200 μL of 0.5% TFA in CH3CN, vortexed, and centrifuged. Then, 100 μL of supernatant was diluted with H2O (1:2). Samples were filtered (regenerated cellulose syringe filters) and aliquots of 5 μL were analyzed. Givinostat concentrations were measured by LC-MS/MS method, in the calibration range of 1–40 ng/mL.
PK parameters were evaluated on mean curves using conventional non-compartmental methodology by the software KineticaTM v. 5.1. Quadriceps concentrations were expressed as nanograms per gram of muscle, this value was obtained by multiplying the homogenate concentrations obtained for the homogenate volume, then subtracting the residual blood content, as reported in literature, considering the measured blood concentrations and dividing for the muscle weight.

[1] = male, C57BL/10ScSn-Dmd^mdx/J (mdx), mouse, blood, 5 mg/kg single oral dose
[2] = male, C57BL/10ScSn-Dmd^mdx/J (mdx), mouse, blood, 10 mg/kg single oral dose
[3] = male, C57BL/10ScSn-Dmd^mdx/J (mdx), mouse, blood, 25 mg/kg single oral dose
[4] = male, C57BL/10ScSn-Dmd^mdx/J (mdx), mouse, blood, 37.5 mg/kg single oral dose
[5] = male, C57BL/10ScSn-Dmd^mdx/J (mdx), mouse, plasma, 5 mg/kg single oral dose
[6] = male, C57BL/10ScSn-Dmd^mdx/J (mdx), mouse, plasma, 10 mg/kg single oral dose
[7] = male, C57BL/10ScSn-Dmd^mdx/J (mdx), mouse, plasma, 25 mg/kg single oral dose
[8] = male, C57BL/10ScSn-Dmd^mdx/J (mdx), mouse, plasma, 37.5 mg/kg single oral dose

Q: Which results are given for CCN(CC)Cc1ccc2cc(COC(=O)Nc3ccc(C(=O)NO)cc3)ccc2c1 [Givinostat]?
A: Detectability in plasma, blood and muscle samples after oral treatment (all doses investigated (5-37.5 mg/kg p.o.)): detectable in all plasma, blood, and muscle samples up to 6 h; blood plasma ratio (male, C57BL/10ScSn-Dmd^mdx/J (mdx), mouse, blood and plasma, 5 mg/kg single oral dose, read-out: AUCtot Blood/Plasma ratio): 1.6; blood plasma ratio (male, C57BL/10ScSn-Dmd^mdx/J (mdx), mouse, blood and plasma, 25 mg/kg single oral dose, read-out: AUCtot Blood/Plasma ratio): 1.5; blood plasma ratio (male, C57BL/10ScSn-Dmd^mdx/J (mdx), mouse, blood and plasma, 37.5 mg/kg single oral dose, read-out: AUCtot Blood/Plasma ratio): 1.4; blood plasma ratio (male, C57BL/10ScSn-Dmd^mdx/J (mdx), mouse, blood and plasma, mean over 5, 10, 25, 37.5 mg/kg oral doses, read-out: AUCtot Blood/Plasma ratio, mean): 1.6; Cmax (male, C57BL/10ScSn-Dmd^mdx/J (mdx), mouse, blood, po, 5 mg/kg, blood, 5 mg/kg single oral dose, read-out: Cmax): 35.1 ng/mL; Cmax (male, C57BL/10ScSn-Dmd^mdx/J (mdx), mouse, blood, po, 10 mg/kg, blood, 10 mg/kg single oral dose, read-out: Cmax): 170 ng/mL; Cmax (male, C57BL/10ScSn-Dmd^mdx/J (mdx), mouse, blood, po, 25 mg/kg, blood, 25 mg/kg single oral dose, read-out: Cmax): 639 ng/mL; Cmax (male, C57BL/10ScSn-Dmd^mdx/J (mdx), mouse, blood, po, 37.5 mg/kg, blood, 37.5 mg/kg single oral dose, read-out: Cmax): 1120 ng/mL; Cmax (male, C57BL/10ScSn-Dmd^mdx/J (mdx), mouse, plasma, po, 5 mg/kg, plasma, 5 mg/kg single oral dose, read-out: Cmax): 24 ng/mL; Cmax (male, C57BL/10ScSn-Dmd^mdx/J (mdx), mouse, plasma, po, 10 mg/kg, plasma, 10 mg/kg single oral dose, read-out: Cmax): 96.7 ng/mL; Cmax (male, C57BL/10ScSn-Dmd^mdx/J (mdx), mouse, plasma, po, 25 mg/kg, plasma, 25 mg/kg single oral dose, read-out: Cmax): 416 ng/mL; Cmax (male, C57BL/10ScSn-Dmd^mdx/J (mdx), mouse, plasma, po, 37.5 mg/kg, plasma, 37.5 mg/kg single oral dose, read-out: Cmax): 807 ng/mL; Kp (male, C57BL/10ScSn-Dmd^mdx/J (mdx), mouse, po, 5 mg/kg, 5 mg/kg single oral dose, read-out: AUCtot Muscle/Plasma ratio): 6.2; Kp (male, C57BL/10ScSn-Dmd^mdx/J (mdx), mouse, po, 10 mg/kg, 10 mg/kg single oral dose, read-out: AUCtot Muscle/Plasma ratio): 5.8; Kp (male, C57BL/10ScSn-Dmd^mdx/J (mdx), mouse, po, 25 mg/kg, 25 mg/kg single oral dose, read-out: AUCtot Muscle/Plasma ratio): 2.8; Kp (male, C57BL/10ScSn-Dmd^mdx/J (mdx), mouse, po, 37.5 mg/kg, 37.5 mg/kg single oral dose, read-out: AUCtot Muscle/Plasma ratio): 3.2; Kp (male, C57BL/10ScSn-Dmd^mdx/J (mdx), mouse, po, 37.5 mg/kg, mean over 5, 10, 25, 37.5 mg/kg oral doses, read-out: AUCtot Muscle/Plasma ratio, mean): ~4.5; Cmax (male, C57BL/10ScSn-Dmd^mdx/J (mdx), mouse, quadriceps muscle, po, 5 mg/kg, muscle (quadriceps), 5 mg/kg single oral dose, read-out: Cmax): 117 ng/g; Cmax (male, C57BL/10ScSn-Dmd^mdx/J (mdx), mouse, quadriceps muscle, po, 10 mg/kg, muscle (quadriceps), 10 mg/kg single oral dose, read-out: Cmax): 197 ng/g; Cmax (male, C57BL/10ScSn-Dmd^mdx/J (mdx), mouse, quadriceps muscle, po, 25 mg/kg, muscle (quadriceps), 25 mg/kg single oral dose, read-out: Cmax): 607 ng/g; Cmax (male, C57BL/10ScSn-Dmd^mdx/J (mdx), mouse, quadriceps muscle, po, 37.5 mg/kg, muscle (quadriceps), 37.5 mg/kg single oral dose, read-out: Cmax): 1180 ng/g; blood plasma ratio (male, C57BL/10ScSn-Dmd^mdx/J (mdx), mouse, whole blood and plasma, 10 mg/kg single oral dose, read-out: AUCtot Blood/Plasma ratio): 1.8; AUC [1]: 156 ng·h/mL; Tmax [1]: 3 h; AUC [2]: 458 ng·h/mL; Tmax [2]: 2 h; AUC [3]: 1810 ng·h/mL; Tmax [3]: 1.5 h; AUC [4]: 2180 ng·h/mL; Tmax [4]: 0.5 h; Tmax (male, C57BL/10ScSn-Dmd^mdx/J (mdx), mouse, muscle (quadriceps), 5 mg/kg single oral dose): 3 h; Tmax (male, C57BL/10ScSn-Dmd^mdx/J (mdx), mouse, muscle (quadriceps), 10 mg/kg single oral dose): 2 h; Tmax (male, C57BL/10ScSn-Dmd^mdx/J (mdx), mouse, muscle (quadriceps), 25 mg/kg single oral dose): 2 h; Tmax (male, C57BL/10ScSn-Dmd^mdx/J (mdx), mouse, muscle (quadriceps), 37.5 mg/kg single oral dose): 0.5 h; AUC [5]: 95.2 ng·h/mL; Tmax [5]: 0.5 h; AUC [6]: 261 ng·h/mL; Tmax [6]: 2 h; AUC [7]: 1230 ng·h/mL; Tmax [7]: 1.5 h; AUC [8]: 1510 ng·h/mL; Tmax [8]: 0.5 h; AUCtot Muscle/Plasma ratio, mean (mean over 5, 10, 25, 37.5 mg/kg oral doses, listed as ITF2357): 4.5; AUCtot (muscle (quadriceps), 5 mg/kg single oral dose): 594.4 ng·h/g; AUCtot (muscle (quadriceps), 10 mg/kg single oral dose): 1511.9 ng·h/g; AUCtot (muscle (quadriceps), 25 mg/kg single oral dose): 3511.2 ng·h/g; AUCtot (muscle (quadriceps), 37.5 mg/kg single oral dose): 4804.6 ng·h/g; Cmax (plasma, 5 mg/kg single oral dose, listed as ITF2357, 5 mg/kg): 24.17 ng/mL; Cmax (plasma, 37.5 mg/kg single oral dose, listed as ITF2357, 37.5 mg/kg): 807.39 ng/mL

— publication PMC8296708, “The pan HDAC inhibitor Givinostat improves muscle function and histological parameters in two Duchenne muscular dystrophy murine models expressing different haplotypes of the LTBP4 gene” (Skeletal Muscle, 2021)
